Molecular target: T1, HMG-CoA reductase (HMGR) (Rattus norvegicus, UniProt P51639)
T1 construct: Microsomes prepared from liver of rats administered with cholestyramine; from tissue
T1 sequence (P51639 1-887): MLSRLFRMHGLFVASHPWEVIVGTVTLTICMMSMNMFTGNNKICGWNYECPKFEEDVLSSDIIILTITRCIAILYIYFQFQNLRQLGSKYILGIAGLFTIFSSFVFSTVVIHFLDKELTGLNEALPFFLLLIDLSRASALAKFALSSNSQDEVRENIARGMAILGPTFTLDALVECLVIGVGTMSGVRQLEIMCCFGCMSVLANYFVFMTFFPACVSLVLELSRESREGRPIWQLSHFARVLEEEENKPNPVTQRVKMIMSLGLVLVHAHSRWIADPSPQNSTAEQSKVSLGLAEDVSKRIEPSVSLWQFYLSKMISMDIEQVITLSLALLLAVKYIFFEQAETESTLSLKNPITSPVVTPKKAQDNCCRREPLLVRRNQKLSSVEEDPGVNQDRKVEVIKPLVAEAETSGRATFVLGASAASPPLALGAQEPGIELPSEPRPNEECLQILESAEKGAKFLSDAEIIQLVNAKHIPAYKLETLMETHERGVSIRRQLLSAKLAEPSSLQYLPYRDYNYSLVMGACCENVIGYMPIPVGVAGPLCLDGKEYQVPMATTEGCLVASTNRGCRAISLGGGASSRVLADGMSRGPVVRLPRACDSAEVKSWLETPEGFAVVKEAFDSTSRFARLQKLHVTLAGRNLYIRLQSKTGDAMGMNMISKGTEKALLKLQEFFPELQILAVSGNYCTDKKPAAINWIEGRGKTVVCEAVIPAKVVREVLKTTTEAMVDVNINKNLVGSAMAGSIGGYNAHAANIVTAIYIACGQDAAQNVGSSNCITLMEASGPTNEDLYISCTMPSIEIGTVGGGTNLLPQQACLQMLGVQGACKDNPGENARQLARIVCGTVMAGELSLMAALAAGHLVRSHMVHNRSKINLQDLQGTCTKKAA
Assay: Inhibitory activity against rat hepatic microsomal HMG-CoA reductase (HMGR)
Assay type: biochemical
Conditions: rat liver microsomes, ¹⁴C-HMG-CoA substrate, 10 minutes incubation
Experimental: Experiment [Inhibitory Activity against Rat Hepatic Microsomal HMG-CoA reductase (HMGR)]
HMGR activities of microsomes were measured in accordance with the method of N. L. Young et al., Methods in Enzymology, 71, 498 (1981).
Microsomes prepared from liver of rats administered with cholestyramine were mixed with a solution of the compounds to be tested in dimethyl sulfoxide and ¹⁴C-HMG-CoA (substrate). After the mixture was incubated for 10 minutes, the reaction was quenched with 6N hydrochloric acid and the mixture was allowed to stand at 37°C for 15 minutes, followed by centrifugation. The supernatant was spotted on thin layer chromatography (TLC; Kieselgel 60F254 manufactured by Merck) and developed with toluene/acetone (1:1). The spot of ¹⁴C-mevalonolactone was collected and the amount of isotope was measured with a scintillation counter (Type 4640 TRI-CARB. manufactured by Paccard) to calculate an amount of the formed mevalonolactone. By comparing amounts of the formed mevalonolactone in the group treated with test compounds and the control group (without test compounds), HMGR activity inhibition rates of the test compounds were calculated.

| HMGR Inhibition (%) (Conc. of Compounds 10⁻⁶ M) | HMGR Inhibition (%) (Conc. of Compounds 10⁻⁷ M) | SMILES |
| --- | --- | --- |
| 100% | 67% | CCC1(CC)Oc2ccccc2C(c2ccc(F)cc2)=C1/C=C/[C@@H](O)C[C@@H](O)CC(=O)[O-].[Na+] (relative stereo) [A, (3R*,5S*)-(E)-7-[4-(4-Fluorophenyl)-2,2-diethyl-2H-chromen-3-yl]-3,5-dihydroxy-6-heptenoic acid sodium salt] |
| 90% | 45% | CCC1(CC)Sc2ccccc2C(c2ccc(F)cc2)=C1/C=C/[C@@H](O)C[C@@H](O)CC(=O)[O-].[Na+] (relative stereo) [C, (+)-(3R*,5S*)-(E)-7-[4-(4-Fluorophenyl)-2,2-diethyl-2H-thiochromen-3-yl]-3,5-dihydroxy-6-heptenoic acid sodium salt] |
| 84% | 32% | CCC1(CC)Oc2ccccc2C(c2ccc(F)cc2)=C1/C=C/[C@H]1C[C@H](O)CC(=O)O1 (relative stereo) [B, Trans-(E)-6-[2-(4-(4-fluorophenyl)-2,2-diethyl-2H-chromen-3-yl)-1-ethenyl]-3,4,5,6-tetrahydro-4-hydroxy-2H-pyran-2-one] |

Source: EP0420266A2, “Chromene or thiochromene derivatives, process for preparing the same, intermediate therefor, pharmaceutical compositions containing said derivatives and the use of said derivatives” (TANABE SEIYAKU CO., LTD., priority 1989, dated 1991)
